Experimental data taken from patent US20080064629A1, “Amphiregulin as a Protective Agent in Acute Hepatic Injury” (priority 2004, published 2008).

Assays:
Type in all cases: cell-based
rat hepatocytes = experiment: DNA synthesis ([3H]thymidine incorporation) in cultured rat hepatocytes; details: for reduction of the effects of AR on DNA synthesis: AR 100 nM, PD98059 10 μM, SP600125 20 μM; for effect on DNA synthesis stimulated by AR (in words): AR 100 nM with PD153035 1 μM, LY294002 20 μM, SB202190 25 μM, TGFβ 8 ng/ml
Method: For DNA synthesis, rat hepatocytes were plated to a density of 3×10^4 cells/well in 96-well plates coated with collagen in MEM medium supplemented with 10% FCS. Five hours after plating, the medium was changed and cells were maintained in absence of serum for another 20 hours. DNA synthesis was assayed after 30 h of treatment with AR. A pulse of [^3H]thymidine was administered (1 μCi/well)(Amersham Biosciences, Piscataway, N.J., USA) 22 h after the addition of AR. Cells were harvested, and the incorporation of thymidine was determined with a scintillation counter. Evaluations were made of the effect of AR on DNA synthesis in the presence of MEK1 inhibitor, PD98059, PI-3K inhibitor, LY294002, p38 MAPK inhibitor, SB202190, JNK inhibitor, SP600125, and of the EGF-R tyrosine kinase activity inhibitor, PD153035—all supplied by Calbiochem.

[1] = tested on: mouse hepatocytes in primary culture; experiment: Apoptosis induced by actinomycin D and Jo2 antibody in mouse hepatocytes in primary culture; details: AR 20 nM; PD153035 1 μM, PD98059 10 μM, LY-294002 20 μM; actinomycin D and Jo2
Text: In order to determine whether the in vivo antiapoptotic effects of AR could be mediated by direct action of AR on liver parenchymal cells, the inventors used mouse hepatocytes in primary culture. It has been reported that hepatocytes exposed to Jo-2 antibodies undergo apoptosis effectively in presence of actinomycin D [(5), (6), (33) Ni, R., Tomita, Y., Matsuda, K., Ichiara, A., Ishimura, K., Ogasawara, J., Nagata, S. 1994. Fas-mediated apoptosis in primary cultured mouse hepatocytes. Exp. Cell Res. 215: 332-337]. Hepatocytes were pretreated with different concentrations of AR during […] before addition of actinomycin D and Jo2 antibody. Measurements of apoptosis and related molecular events, were made 18 h later. […] Likewise, they found antiapoptotic protein Bcl-xL to be induced by treatment with AR in mouse hepatocytes treated with Jo2 (FIG. 4B). In order to identify the AR antiapoptotic signaling mechanisms, PI-3K/Akt and ERK1/2 pathways were studied, as they are general mediators of cell survival [(4), (6)]. […] A key signaling molecule implicated in protection against liver damage induced by Fas is STAT3 [(34) Shen, Y., Devgan, G., Darnell, J. E., Bromberg, J. F. 2001. Constitutively activated Stat3 protects fibroblasts from serum withdrawal and UV-induced apoptosis and antagonizes the proapoptotic effects of activated Statl. Proc. Natl. Acad. Sci. USA. 98: 1543-1548. (35) Haga, S., Terui, K., Zhang, H. Q., Enosawa, S., Ogawa, W., Inoue, H., Okuyama, T., Takeda, K., Akira, S., Ogino, T., et al. 2003. Stat3 protects against Fas-induced liver injury by redox-dependent and -independent mechanisms. J. Clin. Invest. 112: 989-998].
(§1) Hepatocytes were isolated from male Wistar rats (150 g) and C57/BL6 mice (20 g) by perfusion with collagenase (Gibco-BRL, Paisley, UK) as described elsewhere [(18), (20)]. Cells (5×10^5 cells per well) were plated onto 6-well plates coated with collagen (type I collagen, Collaborative Biomedical, Bedford, Mass., USA). Cultures were maintained in MEM medium supplemented with 10% fetal calf serum (FCS), non-essential amino acids, glutamine 2 mM and antibiotics (all supplied by Gibco-BRL). After 2 h of incubation, the medium was removed and cells were again cultured in the same medium with 5% FCS. Where applicable, hepatocytes were treated with IL-1β or TNFα from Roche (Mannheim, Germany), HGF or forskolin from Calbiochem (San Diego, Calif., USA), IL6 from RD Systems (Wiesbaden-Nordenstadt, Germany), or PGE2 from Alexis QBiogene (Carlsbad, Calif., USA).
Apoptosis was induced in cultured mouse hepatocytes by treatment with 0.5 μg/ml of Jo2 antibody and 0.05 μg/ml of actinomycin D as described elsewhere (5). Where applicable, the hepatocytes were treated with AR 6 h before the addition of Jo2 antibody and actinomycin D. Apoptosis was estimated by determining soluble histone-DNA complexes using the Cell Death Detection Assay (Roche). ELISA tests for determining cell death were carried out following the manufacturer's instructions. The specific enrichment of mono- and oligonucleosomes released in the cytoplasm (enrichment factor, EF) was calculated as the ratio between the absorbance values of the samples corresponding to treated cells and control cells. […]
Caspase-3 activity in mouse hepatocytes and liver tissue lysates was assessed using the Caspase-3/CPP32 colorimetric assay kit (BioVision, Palo Alto, Calif., USA). […]

[2] = tested on: AR gene expression in rat hepatocytes; experiment: AR gene expression in cultured rat hepatocytes (real time PCR); details: IL-1β 2 ng/ml; PGE2 10 μM; forskolin, hydrogen peroxide, menadione data not shown
Method: as §1
Total RNA was extracted using TRI reagent (Sigma). […] of RNA were treated with DNase I (Gibco-BRL) before reverse transcription, for which M-MLV enzyme was used (Gibco-BRL) in the presence of RNase OUT (Gibco-BRL). For each PCR reaction 1/10 of each preparation of cDNA was used. PCR products were subjected to electrophoresis in 2% agarose gels, followed by staining with ethidium bromide and quantification using Molecular Analyst software (Bio-Rad, Hercules, Calif., USA). Data were normalized with respect to β-actin gene expression levels. […] All primers were designed to distinguish between the amplification of genomic DNA and cDNA, and all products were sequenced to confirm specificity. The primers used are described below in Table I: […]
Real time PCR was performed using an iCycler (BioRad) and iQ SYBR Green Supermix (Bio-Rad). In order to monitor the specificity of final PCR products, the latter were analysed by fusion curves and electrophoresis. The amount of each transcript was expressed as n-fold the difference versus expression of the reference gene (β-actin)(2^ΔCt, where ΔCt represents the difference in threshold cycle between target genes and control gene).

Row | Compound | effect on DNA synthesis stimulated by AR (in words) (rat hepatocytes) | AR gene expression [2] | other results
1 | COc1cccc(-c2cc(=O)c3ccccc3o2)c1N [PD98059, reference compound] |  |  | reduction of the effects of AR on DNA synthesis (rat hepatocytes): 70%; effect of inhibitor on the protection against apoptosis afforded by AR [1]: did not interfere
2 | COc1cc2ncnc(Nc3cccc(Br)c3)c2cc1OC [PD153035, reference compound] | completely prevents |  | effect of inhibitor on the protection against apoptosis afforded by AR [1]: protection afforded by AR was lost
3 | CCCCC[C@H](O)/C=C/[C@H]1[C@H](O)CC(=O)[C@@H]1C/C=C\CCCC(=O)O [PGE2, prostaglandin E2] |  | rapid induction | 
4 | Oc1ccc(-c2nc(-c3ccncc3)c(-c3ccc(F)cc3)[nH]2)cc1 [SB202190] | no significant effect |  | 
5 | Oc1c2ccccc2c2c3c(cccc13)N=N2 [SP600125] |  |  | reduction of the effects of AR on DNA synthesis (rat hepatocytes): 70%
6 | OO [hydrogen peroxide] |  | no effect | 
7 | CC1=CC(=O)c2ccccc2C1=O [menadione] |  | no effect | 
8 | IL-1β: cytokine implicated in liver inflammatory and regenerative processes (Roche) |  | stimulate AR gene expression | 
9 | transforming growth factor β [TGFβ] | abrogated |  | 
